Data taken from patent publication US5296480A, “Angiotensin II receptor blocking 2,3,6-substituted 5,6,7,8-tetra-hydro-pyrido[4,3]pyrimidin-4(3H)-ones” (American Cyanamid Company, priority 1993, dated 1994).

Target: T1, Angiotensin II Receptor (Bos taurus, UniProt P25104)
T1 construct: added in 20 ul to wells before the introduction of tissue membranes; from tissue; host or cells: microsomal membranes of an unnamed tissue
T1 sequence (P25104 1-359): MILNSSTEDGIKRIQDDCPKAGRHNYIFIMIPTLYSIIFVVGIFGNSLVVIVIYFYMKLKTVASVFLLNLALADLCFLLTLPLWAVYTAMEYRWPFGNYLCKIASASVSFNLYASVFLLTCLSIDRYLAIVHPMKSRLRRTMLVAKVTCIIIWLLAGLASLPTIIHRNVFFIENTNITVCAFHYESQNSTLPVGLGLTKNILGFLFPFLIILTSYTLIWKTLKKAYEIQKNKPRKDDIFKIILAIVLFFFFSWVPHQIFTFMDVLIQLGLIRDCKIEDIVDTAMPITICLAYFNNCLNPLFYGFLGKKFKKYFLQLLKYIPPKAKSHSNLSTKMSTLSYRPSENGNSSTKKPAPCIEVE
Assay: Receptor Binding Assay: displacement of [^125 I](Sar^1,Ile^8)AngII from microsomal membranes
Conditions: pH 7.4, 60 min, room temperature
Description: Binding of [^125 I](Sar^1, Ile^8)AngII
The binding of [^125 I](Sar^1,Ile^8)AngII to microsomal membranes is initiated by the addition of reconstituted membranes (1:10 vols.) in freshly made 50.0 mMTris.HCl buffer, pH 7.4 containing 0.25% heat inactivated bovine serum albumin (BSA): 80 ul membrane protein (10 to 20 ug/assay) to wells already containing 100 ul of incubation buffer (as described above) and 20 ul [^125 I](Sar^1,Ile^8)AngII (Specific Activity, 2200 Ci/mmole). Non-specific binding is measured in the presence of 1.0 uM unlabeled (Sar^1,Ile^8 )AngII, added in 20 ul volume. Specific binding for [^125 I](Sar^1,Ile^8) AngII is greater than 90%. In competition studies, experimental compounds are diluted in dimethylsulfoxide (DMSO) and added in 20 ul to wells before the introduction of tissue membranes. This concentration of DMSO is found to have no negative effects on the binding of [^125 I](Sar^1,Ile^8) AngII to the membranes. Assays are performed in triplicate. […] Presoaking the filter sheet in 0.1% polyethylenemine in normal saline (PEI/Saline) greatly reduces the radioactivity retained by the filter blanks. […] The filters are removed from the filter grid and counted in a Parkard® Cobra Gamma Counter for 1 min. […] The binding data are analyzed by the non-linear interactive "LUNDON-1" program (LUNDON SOFTWARE Inc., Cleveland, Ohio U.S.A.). […]

IC50: 51 nM
Compound: CCCCc1nc2c(c(=O)n1Cc1ccc(-c3ccccc3-c3nn[nH]n3)cc1)CN(C(=O)c1cccnc1)CC2 [Example 10]
